Experimental findings from ChEMBL document CHEMBL5113481, “Design, synthesis and biological evaluation of quinoline-2-carbonitrile-based hydroxamic acids as dual tubulin polymerization and histone deacetylases inhibitors” (Eur J Med Chem, 2022) are described below.

One data set has as its target Tubulin. In words: Inhibition of tubulin polymerization in human HeLa cells assessed as microtubule network polymerization after 30 mins by immunofluorescence analysis. It counts as cell-based.
For another data set, the system named is MDA-MB-231. In words: Antiproliferative activity against human MDA-MB-231 cells after 72 hrs by CellTiter Glo assay. It counts as functional, cell-based. The following applies: MDA-MB-231, 72 h.
The subject of a further data set is K562. In words: Antiproliferative activity against human K562 cells after 72 hrs by CellTiter Glo assay. It counts as functional, cell-based. Particulars: K562, 72 h. On the technique in general: ATP-based viability assays read luminescence as a measure of living cells.
Data set [1] in a line: Antitumor activity against mouse MCA-205 cells allografted in female C57BL/6 mouse assessed as decrease in tumor growth at 0.25 to 0.5 mg/kg, IT(Intratumoral). It counts as functional. The arrangement: scale not given: the % may be the effect or the level left. The following applies: dose lower […], dose upper 0.5 mg/kg.
The subject of a further data set is MCF7. Briefly: Antiproliferative activity against human MCF7 cells after 72 hrs by CellTiter Glo assay. In kind it is functional, cell-based. The following applies: MCF7, 72 h.
The nature of data set [2]: Metabolic stability in human liver microsomes assessed as intrinsic clearance per mg protein measured upto 6 hrs in presence of NADPH generating system by HPLC-MS/MS analysis. In kind it is ADME, Microsome. The following applies: read-out: CLH. (Microsomes from liver hold many membrane-bound enzymes, among them those of drug oxidation.)
Data set [3] is described as follows: Toxicity in C57BL/6 mouse allografted with mouse MCA-205 cells assessed as effect on body weight at 0.1 to 0.5 mg/kg, IT(Intratumoral). It counts as organism-based. The following applies: in vivo, other, dose 0.1-0.5 mg/kg.
The target in a further data set is T1, Histone deacetylase 11 (Homo sapiens, UniProt Q96DB2).
T1 sequence (Q96DB2 whole entry): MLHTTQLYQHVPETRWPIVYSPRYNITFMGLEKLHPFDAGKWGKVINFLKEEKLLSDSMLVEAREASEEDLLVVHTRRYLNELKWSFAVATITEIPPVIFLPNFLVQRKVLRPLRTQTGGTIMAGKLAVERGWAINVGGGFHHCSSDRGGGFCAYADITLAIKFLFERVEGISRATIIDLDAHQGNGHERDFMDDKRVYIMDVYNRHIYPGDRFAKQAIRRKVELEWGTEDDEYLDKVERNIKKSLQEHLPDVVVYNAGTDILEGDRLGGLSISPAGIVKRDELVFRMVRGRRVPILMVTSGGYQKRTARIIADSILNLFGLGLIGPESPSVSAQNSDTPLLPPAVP
In words: Inhibition of HDAC11 (unknown origin) measured by fluorometry assay.

The next data set deals with Tubulin (Homo sapiens) (UniProt P68371+Q9H4B7+P0DPH7+P68366+Q13509+Q71U36+P04350+Q3ZCM7+P07437+P68363+Q9BQE3+Q6PEY2+Q13885+Q9BVA1+Q9BUF5). In words: Inhibition of tubulin polymerization (unknown origin) at 10 uM in presence of GTP. It counts as protein-complex assay.
For a further data set, the system named is HCT-116. Briefly: Antiproliferative activity against human HCT-116 cells after 72 hrs by CellTiter Glo assay. In kind it is functional, cell-based. Particulars: Homo sapiens, HCT-116; time 72 hrs.
The test system of data set [4] is HT-29. In words: Cell cycle arrest in human HT-29 cells assessed as accumulation of cells in G2/M phase at 5 nM measured after 24 hrs by PI staining based flow cytometry method. In kind it is functional. On the technique in general: In flow cytometry, cells or beads pass a laser one at a time.
Data set [5] concerns HT-29. Briefly: Antiproliferative activity against human HT-29 cells after 72 hrs by CellTiter Glo assay. In kind it is functional, cell-based. The following applies: HT-29, 72 h.
Data set [6] in a line: Antitumor activity against mouse MCA-205 cells allografted in female C57BL/6 mouse assessed as tumor regression at […], IT(Intratumoral). In kind it is functional.
A short description of data set [7]: Solubility of compound in water. In kind it is physicochemical.

In brackets after ≈: the same amount, converted by molar mass. Activity calls are given as the source filed them. No cut-off for these calls is given here.

One may read the IC50 as the concentration at which inhibition is half-maximal. In general, GI50 refers to the concentration giving 50% growth inhibition. In general, solubility refers to the dissolved amount per volume that the medium holds. In the case of `COc1ccc(N(C)c2cc(C#N)nc3ccccc23)cc1/C=C/C(=O)NO`, the half-maximal inhibitory concentration (IC50) at Tubulin worked out at 20 nM; in the data set on MDA-MB-231, 0.7 nM; with K562, 0.35 nM; with MCF7, 0.78 nM; at Histone deacetylase 11, 1900 nM; in the data set on HT-29 [5], 0.62 nM. Moreover, the Activity in data set [1] is recorded as 70%; in data set [3], “Non-Toxic”; with HT-29 [4] it was greater than 95%; in data set [6], 40%. Moreover, the microsomal CLint in [2] was found to be 0.36 µL/min/mg. The inhibition entry at Tubulin (Homo sapiens) was “Active”. This molecule showed a GI50 in the data set with HCT-116 of 0.5 nM. The amount in solution in [7] (solubility) came to 68.7 µg/mL (≈ 183 µM).
